Laboratory results taken from article PMC9643456, “Matching amino acids membrane preference profile to improve activity of antimicrobial peptides” (Communications Biology, 2022).
In brackets after ≈: the same amount, converted by molar mass. Square brackets hold non-standard residues; d marks the D form. Ends that are not written are not given here. Peptide text beside a SMILES is read from it. Trp(5-OH) = N[C@@H](Cc1c[nH]c2ccc(O)cc12)C(=O)O

What was measured:
[1] = tested on: MDR A. baumannii; assay: microbe, parasite or virus in culture; conditions: CLSI broth microdilution; CAMHB with 50 mg/L Ca2+, 10 mg/L Mg2+; 5 × 10^5 CFU/ml; 18 h 37 °C; triplicate; strain ATCC BAA-1605
Description: (§1) MDR Pseudomonas aeruginosa (CCARM 2180) was purchased from the Culture Collection of Antimicrobial Resistance Microbes (Seoul, Republic of Korea). MDR Acinetobacter baumannii (ATCC BAA-1605) and MDR Enterococcus faecalis (ATCC 51575) were purchased from the American Type Culture Collection (Manassas, VA, USA). MDR Staphylococcus aureus (KCCM 40510) was purchased from the Korean Culture Center of Microorganisms (Seoul, Republic of Korea). S. aureus (KCTC 1621) was purchased from the Korean Collection for Type Cultures. A. baumannii (KCCM 40203) was purchased from the Korean Culture Center of Microorganisms (Seoul, Republic of Korea).
(§2) To assess antimicrobial activity, the MIC50 and MIC90 were measured using broth microdilution following CLSI guidelines. […] Each experiment was performed in triplicate. Meropenem (Sigma, Darmstadt, Germany) and colistin were used as control antibiotics. Cation-adjusted Mueller–Hinton broth (CAMHB) (Becton, Dickinson and Company, Franklin Lakes, USA) with supplied calcium (50 mg/L) and magnesium (10 mg/L) was used for the CLSI-test condition. Bacteria in midlog phase and peptides were separately diluted in CAMHB. The bacteria and peptide solutions were then mixed in 96-well polyethylene plates (SPL, Gyeonggi-do, Korea) and incubated for 18 h at 37 °C. The final concentration for bacteria was 5 × 10^5 CFU/ml. […] The MIC was defined to be the lowest concentration of peptide without visible turbidity by comparing with control antibiotics with the unaided eye. […] Each experiment was performed in triplicate. MICs in albumin and acetic acid solutions were measured using the same protocol but with 0.2% bovine serum albumin (Bovogen, Keilor, Australia), 0.01% acetic acid (Merck, New Jersey, USA), and CAMHB with both calcium and magnesium. In addition, MICs used in the antibiotic resistance acquisition test, the outer–inner membrane permeation test, and the transmembrane potential test and for FE-SEM were individually determined. The final bacterial concentrations used were as follows: for resistance acquisition, optical density (OD) 0.01; for outer–inner membrane permeability assays (LB), OD 0.1; for the transmembrane potential test, 1 × 10^8 CFU/ml (OD 0.171); […]. Inhibitory activity unidentifiable by direct observation was determined by counting the CFUs. Each experiment was performed at least twice.

[2] = tested on: MDR E. faecalis; assay: microbe, parasite or virus in culture; conditions: CLSI broth microdilution; CAMHB with 50 mg/L Ca2+, 10 mg/L Mg2+; 5 × 10^5 CFU/ml; 18 h 37 °C; triplicate; strain ATCC 51575
Description: as §1, §2

[3] = tested on: MDR P. aeruginosa; assay: microbe, parasite or virus in culture; conditions: CLSI broth microdilution; CAMHB with 50 mg/L Ca2+, 10 mg/L Mg2+; 5 × 10^5 CFU/ml; 18 h 37 °C; no visible turbidity; triplicate; strain CCARM 2180
Description: as §1, §2

[4] = tested on: MDR S. aureus; assay: microbe, parasite or virus in culture; conditions: CLSI broth microdilution; CAMHB with 50 mg/L Ca2+, 10 mg/L Mg2+; 5 × 10^5 CFU/ml; 18 h 37 °C; triplicate; strain KCCM 40510
Description: as §1, §2

[5] = tested on: human red blood cells; assay: Hemolytic activity; assay type: cell-based; conditions: red cells of human, 18 h
Protocol: Human red blood cells (Zenbio, North Carolina, USA) and peptides were separately diluted in PBS (blood concentration, 8%). The blood cell and peptide solutions were then mixed in 96-well polyethylene plates (SPL, Gyeonggi-do, Korea) and incubated for 18 h at 37 °C. The final concentration of human red blood cells was 4%, while peptide concentrations were 100 μM, 50 μM, 25 μM, 12.5 μM, 6.25 μM, 3.13 μM, 1.56 μM, and 0.78 μM. After incubation, the plates were centrifuged at 1000 × g for 5 min, and the supernatants were transferred to 96-well polyethylene plates. Hemolysis levels were determined by measuring the absorbance at 540 nm with a SpectraMax plate spectrophotometer (Molecular Devices, California, USA). Control samples were treated with 1% Triton X-100 (for 100% hemolysis) or solution with 0 μM peptide (for 0% hemolysis) and melittin (for positive control). Each experiment was performed in triplicate.

Row | Compound | Minimum inhibitory concentrations, MDR A. baumannii [1] | Minimum inhibitory concentrations, MDR E. faecalis [2] | Minimum inhibitory concentrations, MDR P. aeruginosa [3] | Minimum inhibitory concentrations, MDR S. aureus [4] | Hemolysis percent, 25 μM [5] | Hemolysis percent, 50 μM [5] | Hemolysis percent, 100 μM [5]
1 | CC[C@@H](C)[C@@H](NC(=O)[C@@H](Cc1c[nH]c2ccccc12)NC(=O)[C@@H](Cc1ccccc1)NC(=O)[C@@H](CC(C)C)NC(=O)[C@H](N)Cc1c[nH]c2ccccc12)C(=O)NCC(=O)N[C@H](CC(C)C)C(=O)N[C@H](CCCNC(=N)N)C(=O)N[C@H](CCCCN)C(=O)N[C@H](CCCCN)C(=O)N[C@H](CCCNC(=N)N)C(N)=O [WCopWF] (H-[dW][dL][dF][dW][dI]G[dL][dR][dK][dK][dR]-NH2) | 1.25 µM (≈ 1.88 µg/mL) | 2.5 µM (≈ 3.75 µg/mL) | 10 µM (≈ 15 µg/mL) | 2.5 µM (≈ 3.75 µg/mL) |  |  | 
2 | CC[C@H](C)[C@H](NC(=O)[C@H](Cc1c[nH]c2ccc(O)cc12)NC(=O)[C@H](CC(C)C)NC(=O)[C@H](CC(C)C)NC(=O)[C@@H](N)Cc1c[nH]c2ccc(O)cc12)C(=O)N[C@@H](C)C(=O)N[C@@H](CC(C)C)C(=O)N[C@@H](CCCNC(=N)N)C(=O)N[C@@H](CCCCN)C(=O)N[C@@H](CCCCN)C(N)=O [WhCopW] (H-[Trp(5-OH)]LL[Trp(5-OH)]IALRKK-NH2) | > 20 µM | > 20 µM | > 20 µM | 5 µM (≈ 6.79 µg/mL) |  |  | 
3 | CC[C@@H](C)[C@@H](NC(=O)[C@@H](Cc1c[nH]c2ccccc12)NC(=O)[C@H](NC(=O)[C@@H](CC(C)C)NC(=O)[C@H](N)Cc1c[nH]c2ccccc12)C(C)C)C(=O)N[C@H](Cc1c[nH]c2ccccc12)C(=O)N[C@H](CCCNC(=N)N)C(=O)N[C@H](CCCNC(=N)N)C(N)=O [WCopW32] (H-[dW][dL][dV][dW][dI][dW][dR][dR]-NH2) | 2.5 µM (≈ 3.03 µg/mL) | 0.63 µM (≈ 0.765 µg/mL) |  | 0.63 µM (≈ 0.765 µg/mL) | 1.66 ± 0.11% | 2.95 ± 0.21% | 4.53 ±0.01%
4 | CC[C@@H](C)[C@@H](NC(=O)[C@@H](Cc1c[nH]c2ccccc12)NC(=O)[C@@H](Cc1ccc(O)cc1)NC(=O)[C@@H](CC(C)C)NC(=O)[C@H](N)Cc1c[nH]c2ccccc12)C(=O)NCC(=O)N[C@H](CC(C)C)C(=O)N[C@H](CCCNC(=N)N)C(=O)N[C@H](CCCCN)C(=O)N[C@H](CCCCN)C(=O)N[C@H](CCCNC(=N)N)C(N)=O [WCopWY] (H-[dW][dL][dY][dW][dI]G[dL][dR][dK][dK][dR]-NH2) | 1.25 µM (≈ 1.9 µg/mL) | 2.5 µM (≈ 3.79 µg/mL) | 20 µM (≈ 30.4 µg/mL) | 10 µM (≈ 15.2 µg/mL) |  |  | 
5 | CC[C@@H](C)[C@@H](NC(=O)[C@@H](Cc1c[nH]c2ccccc12)NC(=O)[C@@H](CCCCN)NC(=O)[C@@H](CC(C)C)NC(=O)[C@H](N)Cc1c[nH]c2ccccc12)C(=O)NCC(=O)N[C@H](CC(C)C)C(=O)N[C@H](CCCNC(=N)N)C(=O)N[C@H](CCCCN)C(=O)N[C@H](CCCCN)C(=O)N[C@H](CCCNC(=N)N)C(N)=O [WCopWK] (H-[dW][dL][dK][dW][dI]G[dL][dR][dK][dK][dR]-NH2) | >20 µM | >20 µM | >20 µM | >20 µM |  |  | 
6 | CC[C@@H](C)[C@@H](NC(=O)[C@@H](Cc1c[nH]c2ccccc12)NC(=O)[C@@H](CCC(=O)O)NC(=O)[C@@H](CC(C)C)NC(=O)[C@H](N)Cc1c[nH]c2ccccc12)C(=O)NCC(=O)N[C@H](CC(C)C)C(=O)N[C@H](CCCNC(=N)N)C(=O)N[C@H](CCCCN)C(=O)N[C@H](CCCCN)C(=O)N[C@H](CCCNC(=N)N)C(N)=O [WCopWE] (H-[dW][dL][dE][dW][dI]G[dL][dR][dK][dK][dR]-NH2) | 10 µM (≈ 14.8 µg/mL) | >20 µM | >20 µM | >20 µM |  |  | 
7 | CC[C@@H](C)[C@@H](NC(=O)[C@@H](Cc1c[nH]c2ccccc12)NC(=O)[C@H](NC(=O)[C@@H](CC(C)C)NC(=O)[C@H](N)Cc1c[nH]c2ccccc12)C(C)C)C(=O)NCC(=O)N[C@H](CC(C)C)C(=O)N[C@H](CCCNC(=N)N)C(=O)N[C@H](CCCCN)C(=O)N[C@H](CCCCN)C(=O)N[C@H](CCCNC(=N)N)C(N)=O [WCopWV] (H-[dW][dL][dV][dW][dI]G[dL][dR][dK][dK][dR]-NH2) | 1.25 µM (≈ 1.82 µg/mL) | 2.5 µM (≈ 3.63 µg/mL) | 10 µM (≈ 14.5 µg/mL) | 2.5 µM (≈ 3.63 µg/mL) |  |  | 
8 | CC[C@@H](C)[C@@H](NC(=O)[C@H](N)Cc1c[nH]c2ccccc12)C(=O)N[C@@H](C(=O)N[C@H](Cc1c[nH]c2ccccc12)C(=O)N[C@@H](C(=O)N[C@H](Cc1c[nH]c2ccccc12)C(=O)N[C@H](CCCNC(=N)N)C(=O)N[C@H](CCCNC(=N)N)C(=O)N[C@H](CCCNC(=N)N)C(N)=O)[C@H](C)CC)[C@H](C)CC [WCopW61] (H-[dW][dI][dI][dW][dI][dW][dR][dR][dR]-NH2) | 1.25 µM (≈ 1.73 µg/mL) |  | 5 µM (≈ 6.92 µg/mL) | 0.63 µM (≈ 0.872 µg/mL) | 6.90 ± 0.03% | 8.91 ± 0.75% | 11.6 ±0.99%
9 | HLLWIALRKK-NH2 [HCopW] | >20 µM | >20 µM | >20 µM | >20 µM |  |  | 
10 | CC[C@@H](C)[C@@H](NC(=O)[C@@H](Cc1c[nH]c2ccccc12)NC(=O)[C@@H](CC(C)C)NC(=O)[C@H](N)Cc1c[nH]c2ccccc12)C(=O)N[C@H](Cc1c[nH]c2ccccc12)C(=O)N[C@H](CCCNC(=N)N)C(=O)N[C@H](CCCNC(=N)N)C(=O)N[C@H](CCCNC(=N)N)C(N)=O [WCopW41] (H-[dW][dL][dW][dI][dW][dR][dR][dR]-NH2) | 2.5 µM (≈ 3.18 µg/mL) | 1.25 µM (≈ 1.59 µg/mL) |  |  | 0.01 ±0.01% | 0.04 ± 0.02% | 0.42 ±0.06%
11 | SLLWIALRKK-NH2 [SCopW] | >20 µM | >20 µM | >20 µM | >20 µM |  |  | 
12 | WLLWIALRKK-NH2 [WCopW] | 5 µM | 10 µM | > 20 µM | 5 µM |  |  | 
13 | CC[C@@H](C)[C@@H](NC(=O)[C@@H](Cc1c[nH]c2ccccc12)NC(=O)[C@@H](CCCNC(=N)N)NC(=O)[C@@H](CCCNC(=N)N)NC(=O)[C@H](N)CCCNC(=N)N)C(=O)N[C@H](Cc1c[nH]c2ccccc12)C(=O)N[C@@H](C(=O)N[C@@H](C(=O)N[C@H](Cc1c[nH]c2ccccc12)C(N)=O)[C@H](C)CC)[C@H](C)CC [WCopW60] (H-[dR][dR][dR][dW][dI][dW][dI][dI][dW]-NH2) | 1.25 µM (≈ 1.73 µg/mL) |  | 5 µM (≈ 6.92 µg/mL) | 0.63 µM (≈ 0.872 µg/mL) | 15.51 ± 0.64% | 15.14 ± 3.22% | 15.17 ± 0.19%
